Structures can show the parent of a compound that is named as a salt. Where two headings read alike, the source gives them in different places.
Tests used:
[1] = test system: Carrageenin-induced Rat Pleurisy; assay: Effect on carrageenin-induced rat pleurisy; type: in vivo; conditions: total cell count in pleural exudate 5 hours after carrageenin; for inhibition in vivo at 10 mg/kg / Inhibitory ratio (%): dose 10 mg/kg orally 30 minutes before carrageenin; for Inhibitory ratio (%): 10 mg/kg; for inhibition in vivo at 30 mg/kg: dose 30 mg/kg orally 30 minutes before carrageenin
Experimental: Effect on Carrageenin-induced Rat Pleurisy
200 μl of a carrageenin solution (10 mg/ml in physiological saline) was intrathoracically injected into rats. Five hours thereafter, blood of the animals was collected from the abdominal aorta under etherization so as to induce death from blood loss. The exudate was taken up from the thoracic cavity and weighed with a single-pan balance. Further, the exudate was diluted with Turk's solution and the cells were counted by using a counting chamber. Next the total cell count was calculated by multiplying the cell count by the exudate volume. Thus the inhibitory ratio was calculated by taking the total cell count with the administration of carrageenin as 100% and that with the administration of physiological saline as 0%. Each test compound was suspended in a 0.5% solution of methylcellulose and orally administered at a dose of 5 ml/kg 30 minutes before the injection of carrageenin.

ICAM-1 = assay: Effect on the expression of ICAM-1 in human cultured umbilical cord endothelial cells (TNF-stimulated, ELISA); type: cell-based; conditions: 1 ng/ml TNF, expression with TNF = 100%, without TNF = 0%, read-out: IC50 (50% inhibitory concentration of ICAM-1 expression)
Experimental: Effect on the Expression of ICAM-1 in Human Cultured Umbilical Cord Endothelial Cells
Examination was made on the effect on the expression of ICAM-1 which is one of adhesion molecules expressed on the surfaces of cultured endothelia cells. The endotheliall cells were suspended in an MCDB131 medium containing 10% of fetal calf serum and pipetted into a 96-well culture plate (10,000 cells/well). After culturing at 37° C. in the presence of 5% of carbon dioxide for 2 days, 1 ng/ml of a tumor necrosis factor (TNF) and a test compound were added to the 96-well culture plate. After culturing at 37° C. in the presence of 5% of carbon dioxide for 4 hours and then washing with a phosphate buffer once, 0.05% of glutaraldehyde was added thereto. Six minutes thereafter, the plate was washed twice and 1 μg/ml of a mouse antihuman ICAM-1 antibody was added thereto. After allowing to stand for 1 hour, it was washed twice and a peroxidase-labeled sheep antimouse immunoglobulin antibody was added thereto. After allowing to stand for 1 hour, it was washed twice and a color developing substrate for peroxidase (o-phenylenediamine) was added thereto. After allowing to stand at room temperature for 10 minutes, a 1 N solution of sulfuric acid was added thereto. Then the absorbance at 490 nm was measured with the use of an absorptiometer for 96-well plate. The value thus obtained was employed as an indication of the ICAM-1 expression.

[2] = Rattus norvegicus, po, 5 h, read-out: Inhibitory ratio (%)
[3] = Homo sapiens, Endothelial cell, 4 h

SMILES | inhibition in vivo at 10 mg/kg [1, 2] [%] | IC50 (ICAM-1; [3]) [nM] | other results
O=C(O)CC1C2CCCC1CN(Cc1ccc3c(c1)Nc1nccnc1S3)C2 (stereo not drawn) [Example 15, (syn)-[3-(10H-Pyrazino[2,3-b][1,4]benzothiazin-8-ylmethyl)-3-azabicyclo[3.3.1]non-9-yl]acetic acid] | 64 |  | IC50 (ICAM-1; 4 hours): 2300 nM
O=C(O)CC1C2CCCC1CN(Cc1ccc3c(c1)Nc1nccnc1S3)C2 (stereo not drawn) [Example 18, (anti)-[3-(10H-Pyrazino[2,3-b][1,4]benzothiazin-8-ylmethyl)-3-azabicyclo[3.3.1]non-9-yl]acetic acid] |  |  | Inhibitory ratio (%) [1]: 67%; IC50 (ICAM-1; 4 hours): 3500 nM
CC1C(C)C2CN(Cc3ccc4c(c3)Nc3nccnc3S4)CC1C2CC(=O)O (stereo not drawn) [Example 23, (+)-(anti)-(6R*,7R*)-[3-(10H-Pyrazino[2,3-b][1,4]benzothiazin-8-ylmethyl)-6,7-dimethyl-3-azabicyclo[3.2.1]oct-8-yl]acetic acid] | 52 |  | IC50 (ICAM-1; 4 hours): 1600 nM
CC1C(C)C2CN(Cc3ccc4c(c3)Nc3nccnc3S4)CC1C2CC(=O)O (stereo not drawn) [Example 24, (−)-(anti)-(6R*,7R*)-[3-(10H-Pyrazino[2,3-b][1,4]benzothiazin-8-ylmethyl)-6,7-dimethyl-3-azabicyclo[3.2.1]oct-8-yl]acetic acid] |  |  | Inhibitory ratio (%) [1]: 54%; IC50 (ICAM-1; 4 hours): 4100 nM
CC1CC(C)C2CN(Cc3ccc4c(c3)Nc3nccnc3S4)CC1C2C(C)C(=O)O (stereo not drawn) [Example 30, (+)-(anti)-(6R*,8R*)-2-[3-(10H-pyrazino[2,3-b][1,4]benzothiazin-8-ylmethyl)-6,8-dimethyl-3-azabicyclo[3.3.1]non-9-yl]propanoic acid] |  |  | Inhibitory ratio (%) [1]: 85%; IC50 (ICAM-1; 4 hours): 500 nM
CC1CC(C)C2CN(Cc3ccc4c(c3)Nc3nccnc3S4)CC1C2C(C)C(=O)O (stereo not drawn) [Example 31, (−)-(anti)-(6R*,8R*)-2-[3-(10H-pyrazino[2,3-b][1,4]benzothiazin-8-ylmethyl)-6,8-dimethyl-3-azabicyclo[3.3.1]non-9-yl]propanoic acid] |  |  | Inhibitory ratio (%) [1]: 38%; IC50 (ICAM-1; 4 hours): 1100 nM
O=C(O)CC1C2CCC1CN(Cc1ccc3c(c1)Nc1nccnc1S3)C2 (stereo not shown) [Example 71] | 94 | 800 | 
O=C(O)C1C2CCC1CN(Cc1ccc3c(c1)Nc1nccnc1S3)C2 (stereo not shown) [Example 73] | 74 | 600 | 
CC1CC(C)C2CN(Cc3ccc4c(c3)Nc3nccnc3S4)CC1C2CC(=O)O (stereo not shown) [Example 79] | 44 |  | 
CC(C(=O)O)C1C2CCCC1CN(Cc1ccc3c(c1)Nc1nccnc1S3)C2 (stereo not shown) [Example 83] | 34 |  | IC50 (ICAM-1; 4 hours): 2800 nM
CC1C(C)C2CN(Cc3ccc4c(c3)Nc3nccnc3S4)CC1C2CC(=O)O (stereo not shown) [Example 89] | 83 | 2800 | 
CC1CCC2CN(Cc3ccc4c(c3)Nc3nccnc3S4)CC1C2CC(=O)O (stereo not shown) [Example 91] | 76 | 2900 | 
O=C(O)C1CC2CC(C1)CN(Cc1ccc3c(c1)Nc1nccnc1S3)C2 (stereo not shown) [Example 98] | 30 | 2400 | 
CC1CC(C)C2CN(Cc3ccc4c(c3)Nc3nccnc3S4)CC1C2CCC(=O)O (stereo not shown) [Example 101] | 48 | 2600 | 
O=C(O)C1CC2CC3CN(Cc4ccc5c(c4)Nc4nccnc4S5)CC(C2)C31 (stereo not shown) [Example 106] | 46 | 2800 | 
O=C(O)c1ccc(OCCC2C3CCCC2CN(Cc2ccc4c(c2)Nc2nccnc2S4)C3)cc1 (stereo not shown) [Example 121] | 70 | 7400 | 

SMILES | inhibition in vivo at 10 mg/kg [1, 2] [%] | IC50 (ICAM-1; [3]) [nM] | other results
CS(=O)(=O)NC1CCN(Cc2ccc3c(c2)Nc2nccnc2S3)CC1 [Example 402] | 57 | 320 | 
CNS(=O)(=O)NC1CCN(Cc2ccc3c(c2)Nc2nccnc2S3)CC1 [Example 403] | 35 | 340 | 
CN(C)S(=O)(=O)NC1CCN(Cc2ccc3c(c2)Nc2nccnc2S3)CC1 [Example 460] | 57 | 320 | 
O=C(O)Cc1ccc(C2CCN(Cc3ccc4c(c3)Nc3nccnc3S4)CC2)cc1 [Example 659] | 20 | 710 | 
O=C(O)CC1CC2(CCN(Cc3ccc4c(c3)Nc3nccnc3S4)CC2)C1 [Example 677] | 76 | 900 | 
O=C(O)C1CC2(CCN(Cc3ccc4c(c3)Nc3nccnc3S4)CC2)C1 [Example 686] | 71 | 900 | 
O=C(O)C1(C2CCN(Cc3ccc4c(c3)Nc3nccnc3S4)CC2)CC1 [Example 698] | 26 | 490 | 
O=C(O)CC1CCC2CN(Cc3ccc4c(c3)Nc3nccnc3S4)CC2C1 (stereo not shown) [Example 717] | 32 | 1150 | 
CC(CCC1CCN(Cc2ccc3c(c2)Nc2nccnc2S3)CC1)C(=O)O (stereo not shown) [Example 729] | 64 | 1300 | 
c1cncc(NCc2ccc3c(c2)Nc2nccnc2S3)c1 [Example 901, 8-[N-(Pyridin-3-yl)aminomethyl]-10H-pyrazino[2,3-b][1,4]benzothiazine] |  | 1800 | inhibition in vivo at 30 mg/kg [1, 2]: 38%
OC(c1cccnc1)c1ccc2c(c1)Nc1nccnc1S2 (stereo not shown) [Example 1145] | 29 | 770 | 
NCc1ccc2c(c1)Nc1nccnc1S2 [Example 1241, 8-(Aminomethyl)10H-pyrazino[2,3-b][1,4]benzothiazine hydrochloride] |  | 3600 | inhibition in vivo at 100 mg/kg ([1]; Rattus norvegicus, po, 5 h, dose 100 mg/kg orally 30 minutes before carrageenin, read-out: Inhibitory ratio (%)): 28%
CC(C)(O)c1ncnc2c1ncn2Cc1ccc2c(c1)Nc1nccnc1S2 [Example 1439] |  | 490 | inhibition in vivo at 30 mg/kg [1, 2]: 77%
N#C/N=C(\N)Cc1ccc2c(c1)Nc1nccnc1S2 [Example 1487, N^2-Cyano-(10H-pyrazino[2,3-b][1,4]benzothiazin-8-yl)acetamidine] |  | 670 | inhibition in vivo at 30 mg/kg [1, 2]: 32%
O=C(O)CC1C2CCCC1CN(Cc1ccc3c(c1)Nc1nccnc1S3)C2 (stereo not drawn) [Example 1568, (endo,anti)-[3-(10H-Pyrazino[2,3-b][1,4]benzothiazin-8-ylmethyl)-3-azabicyclo[3.3.1]non-9-yl]acetic acid] |  |  | inhibition in vivo at 30 mg/kg [1, 2]: 50%; IC50 (ICAM-1; 4 hours): 500 nM
